Reference: ChEMBL document CHEMBL1144164, “Carbonic anhydrase inhibitors: inhibition of the beta-class enzymes from the fungal pathogens Candida albicans and Cryptococcus neoformans with simple anions” (Bioorg Med Chem Lett, 2008)

Assays:
[1] = target: Carbonic anhydrase 1 (Homo sapiens) (UniProt P00915)
Description: Inhibition of human carbonic anhydrase 1 at 20 degC by CO2 hydration method

[2] = target: Carbonic anhydrase 2 (Homo sapiens) (UniProt P00918)
Description: Inhibition of human carbonic anhydrase 2 at 20 degC by CO2 hydration method

[3] = target: T1, Carbonic anhydrase (Methanobacterium thermoautotrophicum) (UniProt Q50565); conditions: Methanothermobacter thermautotrophicus
T1 sequence (whole entry): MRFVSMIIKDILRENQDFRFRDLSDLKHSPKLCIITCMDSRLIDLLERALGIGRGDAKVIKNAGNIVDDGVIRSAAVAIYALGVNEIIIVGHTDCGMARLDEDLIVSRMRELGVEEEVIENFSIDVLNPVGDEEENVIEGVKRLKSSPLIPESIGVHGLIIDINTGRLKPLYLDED
Description: Inhibition of Methanobacterium thermoautotrophicum Cab at 20 degC by CO2 hydration method

Carbonic anhydrase 1 (Homo sapiens), sequence (P00915 2-261 limits assumed): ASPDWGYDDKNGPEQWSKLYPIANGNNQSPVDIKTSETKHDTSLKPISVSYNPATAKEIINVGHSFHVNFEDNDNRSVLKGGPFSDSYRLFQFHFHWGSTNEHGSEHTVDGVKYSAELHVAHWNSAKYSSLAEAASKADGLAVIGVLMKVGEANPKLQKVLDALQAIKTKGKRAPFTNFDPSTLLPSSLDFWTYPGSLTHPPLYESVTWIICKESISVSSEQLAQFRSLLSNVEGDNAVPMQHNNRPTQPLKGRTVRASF
Description for Cryptococcus neoformans: Inhibition of Cryptococcus neoformans Can2 at 20 degC by CO2 hydration method

Q: With `NS(=O)(=O)O` as the molecule, how does the Kinact [1] read?
A: The Kinact was 0.021 mM.

Q: And the Kinact [2]?
A: The Kinact was 0.39 mM.

Q: What about the Kinact [3] of the same molecule?
A: Its Kinact is 44 mM.

Q: What about the Kinact (Cryptococcus neoformans) of the same molecule?
A: Its Kinact is 8.22 mM.
